Measurements as given in patent publication US5990163A, “Selective modulation of processes mediated by retinoid X receptors, and compounds useful therefor” (The Salk Institute for Biological Studies, priority 1995, dated 1999).
Entries after “also recorded” stand apart in the source; their conditions may differ.

Tests used:
hRXRα [1] = biological target: T1, hRXRα (Homo sapiens, UniProt P19793); assay: Cotransfection assay in Schneider cells, RXR expression plasmid and ADH-CRBPII-LUC luciferase reporter; type: cell-based; conditions: for activation of RXR (transcription from the reporter construct), in words: Schneider cells, ADH-CRBPII-LUC
T1 sequence (P19793 1-462): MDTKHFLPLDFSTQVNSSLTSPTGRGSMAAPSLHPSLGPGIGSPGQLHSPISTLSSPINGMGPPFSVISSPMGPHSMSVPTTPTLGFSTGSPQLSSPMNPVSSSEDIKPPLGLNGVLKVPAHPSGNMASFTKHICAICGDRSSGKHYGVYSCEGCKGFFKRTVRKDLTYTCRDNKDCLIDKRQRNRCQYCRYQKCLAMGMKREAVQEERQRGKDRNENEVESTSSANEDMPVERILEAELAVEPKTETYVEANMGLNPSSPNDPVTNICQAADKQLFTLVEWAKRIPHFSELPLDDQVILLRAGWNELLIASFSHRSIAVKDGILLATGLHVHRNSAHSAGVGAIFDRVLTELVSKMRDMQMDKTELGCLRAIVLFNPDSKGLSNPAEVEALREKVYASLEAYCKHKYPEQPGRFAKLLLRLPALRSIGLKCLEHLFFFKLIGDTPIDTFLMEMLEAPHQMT
Method: Candidate ligands were initially tested in Schneider cells cotransfected with an RXR expression plasmid and a luciferase reporter plasmid containing an RXR specific response element.
Cell lysates were then assayed for luciferase activity, which is expressed as relative light units (RLU) and represents the mean of triplicate assays (±SEM) normalized to β-galactosidase as an internal control. […] After 24 hours, ligand was added to the transfected cells. Thirty six hours later, the cells were harvested and extracts prepared and assayed for enzyme activity as described by Heyman et al., supra, and Clayton, supra. Luciferase values were normalized for transfection and harvesting efficiency by measuring β-galactosidase activity, and the results reported as average relative light units (RLU) for at least two replicates.

GAL4-hRARα = biological target: T2, GAL4-hRARα (Homo sapiens, UniProt P10276); assay: Cotransfection with GAL4 chimeric receptor, TK-MH100×4-LUC reporter in CV-1 cells; type: cell-based; conditions: 10^-5 M ligand
T2 construct: CMX plasmid, CV-1 cells, TK-MH100x4-LUC
T2 sequence (P10276 203-462): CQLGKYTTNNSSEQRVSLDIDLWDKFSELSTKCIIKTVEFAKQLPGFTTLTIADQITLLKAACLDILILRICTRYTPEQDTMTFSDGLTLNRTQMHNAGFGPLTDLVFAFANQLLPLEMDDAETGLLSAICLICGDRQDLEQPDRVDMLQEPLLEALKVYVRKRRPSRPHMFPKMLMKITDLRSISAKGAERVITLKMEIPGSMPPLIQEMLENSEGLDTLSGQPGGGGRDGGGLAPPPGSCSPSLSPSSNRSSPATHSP
Source text: (§1) Thus, CV-1 cells were cotransfected with the expression plasmid CMX-GAL4-hRXRα, CMX-GAL4-hRARα, CMX-GAL4-RARβ or CMX-GAL4-RARγ and the reporter plasmid TK-MH100×4-LUC. The constructs consisted of the GAL4 DNA binding domain (amino acids 1-147; see Sadowski and Ptashne in Nucl. Acids Res. 17:7539 (1989)) ligated in frame to the ligand binding and C-terminal activation domains of hRARα (amino acids 203-462; see Giguere et al., in Nature 330:624 (1987), hRARβ (amino acids 178-448; see Brand et al., in Nature 332:850 (1988), RARγ (amino acids 187-454; see Ishikawa et al., in Mol. Endo. 4:837 (1990) and RXRα (amino acids 203-462; see Mangelsdorf et al., in Nature 345:224 (1990). These GAL4-receptor chimeras were then introduced into CMX expression vectors (see Umesono et al., in Cell 65:1255 (1991)). The GAL4-responsive reporter plasmid, TK-MH100×4-LUC, was constructed by inserting 4 copies of the yeast UASG enhancer (i.e., MH100; see Webster et al., in Cell 52:169 (1988)) into the luciferase reporter plasmid TK-LUC. CV-1 cells seeded into 48 well culture plates were co-transfected with 80 ng of the reporter plasmid TK-Mh100×4-LUC, 50 ng of CMX-βgal expression plasmid, and 80 ng of receptor expression plasmid (either CMX-GAL4 as a control, CMX-GAL4-hRARα, CMX-GAL4-hRARβ, CMX-GAL4-hRARγ or CMX-GAL4-hRXRα). […] Cotransfections, ligand addition and luciferase assays were performed as described in Example 3.
(§2) The above-described chimeric proteins can bind to a GAL4 upstream activation sequence (UASG) in the promoter of a luciferase reporter, but can only activate transcription in the presence of the hybrid receptor's ligand. The distinct advantage of using the GAL4-receptor system, instead of the wild-type receptors and response elements, is that the GAL4-hybrids provide a sensitive and effective means for assaying receptor/ligand interactions, even in the presence of the cell's endogenous wild-type receptors.

GAL4-hRARβ = biological target: T3, GAL4-hRARβ (Homo sapiens, UniProt P10826); assay: as above; type: cell-based; conditions: 10^-5 M ligand
T3 construct: CMX plasmid, CV-1 cells, TK-MH100x4-LUC
T3 sequence (P10826 185-455): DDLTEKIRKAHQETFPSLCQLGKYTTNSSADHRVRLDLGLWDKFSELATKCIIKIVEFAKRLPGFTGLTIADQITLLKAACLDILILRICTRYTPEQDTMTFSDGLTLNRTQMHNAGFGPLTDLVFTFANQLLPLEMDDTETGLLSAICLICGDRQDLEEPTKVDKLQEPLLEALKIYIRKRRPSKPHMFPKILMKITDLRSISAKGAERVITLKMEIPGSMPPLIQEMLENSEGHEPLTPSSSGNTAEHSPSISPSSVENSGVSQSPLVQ
Source text: as §1, §2

GAL4-hRARγ = biological target: T4, GAL4-hRARγ (Homo sapiens, UniProt P13631); assay: as above; type: cell-based; conditions: 10^-5 M ligand
T4 construct: CMX plasmid, CV-1 cells, TK-MH100x4-LUC
T4 sequence (P13631 187-454): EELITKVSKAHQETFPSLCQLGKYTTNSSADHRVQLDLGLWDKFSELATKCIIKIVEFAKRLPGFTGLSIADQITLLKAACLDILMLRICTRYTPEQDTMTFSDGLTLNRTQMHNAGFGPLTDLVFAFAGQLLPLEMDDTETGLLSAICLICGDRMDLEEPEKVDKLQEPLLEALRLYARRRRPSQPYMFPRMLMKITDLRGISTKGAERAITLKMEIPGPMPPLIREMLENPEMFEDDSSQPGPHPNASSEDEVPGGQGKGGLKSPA
Source text: as §1, §2

hRXRα [2] = biological target: T1, hRXRα; assay: Competitive ligand binding, competition for [3H]9cRA binding; conditions: 40 nM [3H]9cRA, increasing concentrations of unlabelled compound
Method: Binding analysis was performed as described by Boehm et al., in J. Med. Chem. 37:2930-2941 (1994). Compounds used in these studies were prepared according to Wecksler and Norman (Anal. Biochem. 92:314-323 (1979).

mouse RXRα = assay: Transactivation dose response, CRBPII-LUC reporter in Schneider and CV-1 cells; type: cell-based; conditions: Schneider cells and CV-1 cells
Method: (§3) Cell lysates were then assayed for luciferase activity, which is expressed as relative light units (RLU) and represents the mean of triplicate assays (±SEM) normalized to β-galactosidase as an internal control. Thus, Schneider cells in 6-well culture plates were co-transfected with 0.5 μg ADH-CRBPII-LUC, 0.5 μg A5C-βgal and 1 μg of receptor plasmid (either A5C-mRXRα, A5C-mRXRβ, A5C-mRXRγ or A5C-hRXRα) by the CaPO4 precipitation method, as described by Heyman et al., in Cell 68:397 (1992) and Clayton in Aspects of Terpenoid Chemistry and Biology, T. W. Goodwin, ed. (Academic Press, London) pp. 1-23 (1971). After 24 hours, ligand was added to the transfected cells. Thirty six hours later, the cells were harvested and extracts prepared and assayed for enzyme activity as described by Heyman et al., supra, and Clayton, supra. Luciferase values were normalized for transfection and harvesting efficiency by measuring β-galactosidase activity, and the results reported as average relative light units (RLU) for at least two replicates.
(§4) To further test the ability of methoprene acid to function as an RXR ligand, the transactivation properties of methoprene on all three RXR subtypes was investigated. FIG. 3 presents the dose responses of the three RXR subtypes to methoprene acid in insect Schneider cells (FIG. 3A), or mammalian CV-1 cells (FIG. 3B) cotransfected with expression plasmids for mouse RXRα, RXRβ, or RXRγ and the reporter plasmid ADH-CRBPII-LUC (for Schneider cells) or TK-CRBPII-LUC (for CV-1 cells).
(§5) Experiments in Schneider cells were conducted as described in Example 1. Experiments in CV-1 cells were conducted as follows. CV-1 cells were seeded into 48-well sulture dishes and co-transfected with 50 ng of TK-CRBPII-LUC reporter plasmid, 50 ng of CMX-βgal expression plasmid, and 25 ng of expression plasmid for receptor (either CMX-mRXRα, CMX-mRXRβ or CMX-mRXRγ) by the CaPO4 precipitation method, as described by Heyman et al., supra and Clayton supra. […] Luciferase activity was determined as described by Unsworth et al., in Life Sciences 15:1649 (1974).

mouse RXRβ = assay: as above; type: cell-based; conditions: Schneider cells and CV-1 cells
Method: as §3, §4, §5

mouse RXRγ = assay: as above; type: cell-based; conditions: Schneider cells and CV-1 cells
Method: as §3, §4, §5

GAL4-hRXRα = biological target: T5, GAL4-hRXRα (Homo sapiens, UniProt P19793); assay: Cotransfection with GAL4 chimeric receptor, TK-MH100×4-LUC reporter in CV-1 cells; type: cell-based; conditions: 10^-5 M ligand
T5 construct: CMX plasmid, CV-1 cells, TK-MH100x4-LUC
T5 sequence (P19793 203-462): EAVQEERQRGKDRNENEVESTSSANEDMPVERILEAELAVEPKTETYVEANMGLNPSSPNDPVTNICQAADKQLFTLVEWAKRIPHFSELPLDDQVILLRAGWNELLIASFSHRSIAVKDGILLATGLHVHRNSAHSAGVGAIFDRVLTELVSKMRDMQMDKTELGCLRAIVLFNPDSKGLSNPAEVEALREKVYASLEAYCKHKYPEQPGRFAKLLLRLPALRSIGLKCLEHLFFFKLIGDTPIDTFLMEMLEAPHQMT
Source text: as §1, §2

RXR-alpha = assay: Expression of genes under the control of regulatory elements of apolipoprotein AI; type: cell-based
[3] = previous studies (Quistad et al.); a major product is methoprene acid; cited from earlier work
[4] = 36 h, read-out: induction of luciferase reporter above methanol control

With `COC(=O)/C=C(\C)CC/C=C(\C)CCC1OC1(C)C` (stereo not drawn) [JH III, methyl (2E,6E)-10,11-epoxy-3,7,11-trimethyl-2,6dodecadienoate, reference compound] the “activation of RXR (transcription from the reporter construct), in words” value (from here on “activation of RXR”) (hRXRα [1]) was “do not activate RXR”.
With `CC1=C(/C=C/C(C)=C\C=C\C(C)=C\C(=O)O)C(C)(C)CCC1` [9cRA, 9-cis-retinoic acid, reference compound] the “activation of transcription with GAL4-RARα, in words” value (GAL4-hRARα) was “can activate transcription”, the “activation of transcription with GAL4-RARβ, in words” value (GAL4-hRARβ) was “can activate transcription” and the “activation of transcription with GAL4-RARγ, in words” value (GAL4-hRARγ) was “can activate transcription”.
In the case of `CC(/C=C/CC(C)CCCC(C)C)=C\C(=O)O` (stereo not drawn) [hydroprene acid], the fold induction at 100 µM (hRXRα [1]; [4]) is reported as 81 and the “competition for [3H]9cRA binding to RXRα, in words” value (shortened to “competition for [3H]9cRA binding”) (hRXRα [2]) is reported as “observed to bind RXR”.
In the case of `CC(C)=CCC/C(C)=C/CC/C(C)=C/CO` [farnesol, (2E,6E,10E)-3,7,11-trimethyl-2,6,10-dodecatrienol, reference compound], the “activation of RXR” value (hRXRα [1]) is reported as “do not activate RXR”.
For `COC(C)(C)CCCC(C)C/C=C/C(C)=C/C(=O)O` (stereo not drawn) [methoprene acid], the fold induction at 10 µM (hRXRα [1]; [4]) was 95, the “competition for [3H]9cRA binding” value (hRXRα [2]) was “competes well” and the “response of RXRα (transactivation), in words” value (mouse RXRα) was “respond strongly”. For the same compound, the “response of RXRβ (transactivation), in words” value (mouse RXRβ) was “responds only weakly”, the “response of RXRγ (transactivation), in words” value (mouse RXRγ) was “respond strongly” and the “activation of transcription with GAL4-RARα, in words” value (GAL4-hRARα) was “specific for activation of only the GAL4-RXR”. For the same compound, the “activation of transcription with GAL4-RARβ, in words” value (GAL4-hRARβ) was “specific for activation of only the GAL4-RXR”, the “activation of transcription with GAL4-RARγ, in words” value (GAL4-hRARγ) was “specific for activation of only the GAL4-RXR” and the “activation of transcription with GAL4-RXR, in words” value (GAL4-hRXRα) was “specific for activation of only the GAL4-RXR”. The “effect of RXR-alpha in the presence of ligand on expression of genes under apolipoprotein AI regulatory elements” value (RXR-alpha) was “strong effect”.
In the case of `CCOC(=O)/C=C(C)/C=C/CC(C)CCCC(C)C` (stereo not drawn) [hydroprene, ethyl (2E,4E)-3,7,11-trimethyl-2,4-dodecadienoate], the “activation of RXR” value (hRXRα [1]) is reported as “activate RXR” and the “competition for [3H]9cRA binding” value (hRXRα [2]) is reported as “not”.
With `C/C(=C\c1ccc(C(=O)O)cc1)c1ccc2c(c1)C(C)(C)CCC2(C)C` [TTNPB, (E)-4-[2-(5,6,7,8-tetrahydro-5,5,8,8-tetramethyl-2-napthalenyl)-1-propenyl]benzoic acid, reference compound] the “activation of transcription with GAL4-RXR, in words” value (GAL4-hRXRα) was “exclusive response”.
In the case of `COC(C)(C)CCCC(C)C/C=C/C(C)=C/C(=O)OC(C)C` (stereo not drawn) [methoprene, isopropyl (2E,4E)-11-methoxy-3,7,11-trimethyl-2,4-dodecadienoate], the fold induction at 100 µM (hRXRα [1]; [4]) is reported as 80, the “activation of RXR” value (hRXRα [1]) is reported as “activate RXR” and the “competition for [3H]9cRA binding” value (hRXRα [2]) is reported as “unable to displace 9cRA binding at any concentration; also recorded: unable to competitively bind RXR at any concentration”. The metabolism within cells [3] was “metabolized within cells to several products”.
